Data reported in patent publication US9066516B2, “Uses of thaxtomin and thaxtomin compositions as herbicides” (priority 2008, dated 2015).
Where two headings read alike, the source gives them in different places.

Tests used:
Format in all cases: in vivo
[1] = test system: dandelion; assay: Greenhouse synergy test MBI-005 + turf herbicides (Example 11); settings: 14 days
Protocol: (§1) The common turf weeds dandelion and plantain were used in testing for synergy between MBI-005 and 2, 4- or dicamba, two common turf herbicides.
(§2) There were 3 replicates per treatment which were sprayed with approximately ⅔ ml per replicate. The treatments were completely randomized and kept in a greenhouse at 25° C. The efficacy was rated at 7 and 14 days post treatment.

[2] = test system: plantain; assay: as above; settings: 14 days
Protocol: as §1, §2

[3] = test system: crabgrass; assay: Post-emergent MBI-005 + Atrazine on crabgrass (Example 17); settings: 35% Atrazine Label Rate
Protocol: Ten seedlings in 2.5 cm square pots containing plant growth mix were sprayed with two suboptimal rates of MBI-005, and 35% of the atrazine label rate (0.3 gallons/A), or a combination thereof, at a volume of 40 gal/A using a cabinet track sprayer. Negative controls were sprayed with water. Pots were randomly placed in a growth room at 25° C. and 50% RH, and watered as necessary. Treatments were replicated five times and evaluated at 7 and 14 days for visual % damage, with 0% indicating no damage and 100% indicating plant death.
(§3) Synergy was calculated as the ratio of observed (E) to expected (E/Ee) percent control using Colby's formula.

[4] = test system: barnyard grass; assay: Greenhouse spray test bialaphos + MBI-005 (Example 10)
Protocol: The MBI-005 and bialaphos were prepared at various concentrations either as single ingredients or in combination with bialaphos. The treatments were applied at approximately ⅔ ml per replicate with a hand-help spray nozzle to barnyard grass or sedge. There were 3 replicates per treatment which were randomized after spray and were kept in a greenhouse at 25° C. for evaluation of phytotoxicity (% control).

[5] = test system: broad-leaf mustard; assay: Greenhouse synergy test MBI-005 + commercial herbicides (Example 11); settings: 14 days
Protocol: (§4) The test species barnyard grass, ragweed, sedge, and broad-leaf mustard were used for the valuation of synergy between MBI-005 and the rice herbicides clomazone, penoxsulam, cyhalofop, fenoxaprop-p-ethyl, bispyribac-sodium, thiobencarb, and propanil.
as §2

[6] = test system: barnyard grass; assay: as above; settings: 14 days
Protocol: as §4, §2

[7] = test system: watergrass; assay: Field study, 1-sq foot plots (Example 5); settings: 14 days after treatment
Protocol: (§5) The combined effect of thaxtomin A and two commercial herbicides (Bipyribac-sodium formulated as Regiment and Lemongrass oil formulated as GreenMatch EX) on small-flower umbrella sedge and watergrass is tested in a field study using small (1-sq foot) plots. All single product treatments and tank mix combinations were sprayed at 57 gal per acre. Means in each column marked with the same letter in Table 2 are not statistically different from each other at p<0.05

[8] = test system: small-flower umbrella sedge; assay: Field study, 1-sq foot plots (Example 5); settings: 14 days after treatment
Protocol: as §5

[9] = test system: small flower umbrella sedge; assay: Post-emergent MBI-005 + rice herbicides on smallflower umbrella sedge (Example 19); settings: 14 days
Protocol: Twenty seedlings in 2.5 cm square pots containing plant growth mix were sprayed to full coverage using a hand sprayer. Negative controls were sprayed with water. Pots were randomly placed in a growth room at 25° C. and 50% RH, and watered as necessary. Treatments were replicated three times and evaluated at 7 and 14 days for visual % damage, with 0% indicating no damage and 100% indicating plant death.
as §3

[10] = test system: barnyard grass; assay: Post-emergent MBI-005 + rice herbicides on barnyard grass (Example 18); settings: 14 days
Protocol: Ten seedlings in 2.5 cm square pots containing plant growth mix were sprayed to full coverage using a hand sprayer. Negative controls were sprayed with water. Pots were randomly placed in a growth room at 25° C. and 50% RH, and watered as necessary. Treatments were replicated three times and evaluated at 7 and 14 days for visual % damage, with 0% indicating no damage and 100% indicating plant death.
Synergistic effect were noted between MBI-005 and all three rice herbicides, 14 days after treatment. Synergy was calculated as the ratio of observed (E) to expected (E/Ee) percent control using Colby's formula.

[11] = test system: ragweed; assay: Greenhouse synergy test MBI-005 + commercial herbicides (Example 11); settings: 14 days
Protocol: as §4
(§6) […] other herbicides commonly used for field crops, glyphosate, glufosinate, synthetic version of bialaphos, and mesotrione were also tested for synergy with MBI-005 on crabgrass and ragweed.
as §2

[12] = test system: crabgrass; assay: Crabgrass seed germination, MBI-005 + m-Tyrosine (Example 15); settings: 7 DAT; for AVG No. germinated: forty-five seeds
Protocol: Forty-five seeds were placed on a ring of blotter paper inside a 3 cm petri dish, covered with 10 cm^3 of inert baked clay particle media and supplied with 7 ml of 0.035 mg/ml MBI-005, a m-Tyrosine concentration, or a combination of MBI-005 and m-Tyrosine (Table 14). Water was used as a negative control. Petri dishes were randomly placed in a growth room at 25° C. and 50% RH. Treatments were replicated three times and germinated seeds were counted 7 days after application; water was added as necessary to maintain moisture levels inside each petri dish.
Synergy was calculated as the ratio of observed (E) to expected (E/Ee) reduction in germination using Colby's formula.

[13] = test system: redstem; Ammania spp.; assay: Greenhouse study thaxtomin A / sarmentine (Example 9); settings: 25 days after treatment
Protocol: (§7) A strain of S. acidiscabies was grown in oat bran broth for 5 days (25° C., 200 rpm). The whole cell broth was extracted using XAD resin, and the dried crude extract was resuspended in 4% ethanol and 0.2% non-ionic surfactant at a concentration of 10 mg/mL. The diluted extracts containing 0.2 and 0.4 mg thaxtomin A per mL were tested on three weed species (redstem; Ammania spp., smallflower umbrella sedge; Cyperus difformis and sprangletop: Leptochloa uninervia). Other treatments included sarmentine at 2.5 and 5.0 mg/mL, and a combination treatment containing 0.2 mg thaxtomin A and 2.5 mg sarmentine per mL. Each treatment was applied in three replicates. Treated plants were kept in a greenhouse under 12 h light/12 h dark conditions.

[14] = test system: sprangletop: Leptochloa uninervia; assay: as above; settings: 25 days after treatment
Protocol: as §7

[15] = test system: smallflower umbrella sedge; Cyperus difformis; assay: as above; settings: 25 days after treatment
Protocol: as §7

[16] = test system: sedge; assay: Greenhouse synergy test MBI-005 + commercial herbicides (Example 11); settings: 14 days
Protocol: as §4, §2

[17] = test system: crabgrass; assay: Greenhouse synergy test MBI-005 + field crop herbicides (Example 11); settings: 14 days
Protocol: as §6, §2

[18] = test system: Smallflower umbrella sedge; assay: Post-emergent MBI-005 + Thiobencarb on Smallflower umbrella sedge (Example 21); settings: post-emergence, 336 h, 14 days, read-out: Observed Average % Efficacy (E)
Protocol: […] Negative controls were sprayed with water. Pots were randomly placed in a growth room at 25° C. and 50% RH, and watered as necessary. Treatments were replicated three times and evaluated at 7 and 14 days for visual % damage, with 0% indicating no damage and 100% indicating plant death.
as §3

[19] = Bispyribac-sodium 13.3% v/v of label rate

O=C(O)COc1ccc(Cl)cc1Cl [2,4-D, reference compound]
% Control Product ([1]; 2, 4-D 0.176 mg/mL): 25.0% | % Control Product ([2]; 2, 4-D 2.340 mg/mL): 50.0%

CCNc1nc(Cl)nc(NC(C)C)n1 [Atrazine, reference compound]
AVG E (visual % damage) ([3]; 7DAT): 11.9% | AVG/ E (visual % damage) ([3]; 14DAT): 8.8%

C[C@H](NC(=O)[C@H](C)NC(=O)[C@@H](N)CCP(C)(=O)O)C(=O)O [Bialaphos]
% Control (14 days) ([4]; Table 6, Bialaphos 0.089 mg/mL): 0.0 a % | % Control (14 days) ([4]; Table 6, Bialaphos 0.178 mg/mL): 0.0 a % | % Control (14 days) ([4]; Table 6, Bialaphos 0.356 mg/mL): 0.0 a % | % Control (14 days) ([4]; Table 6, Bialaphos 0.534 mg/mL): 0.0 a % | % Control (14 days) ([4]; Table 6, Bialaphos 0.712 mg/mL): 0.0 a % | % Control (14 days) ([4]; Table 6, Bialaphos 0.890 mg/mL): 1.3 ab % | % Control (14 days) ([4]; Table 6, Bialaphos 1.068 mg/mL): 5.0 abc % | % Control (14 days) ([4]; Table 7, Bialaphos 0.18 mg/mL): 6.7 bc % | % Control (14 days) ([4]; Table 7, Bialaphos 0.53 mg/mL): 3.3 ab % | % Control (14 days) ([4]; Table 7, Bialaphos 1.07 mg/mL): 10.0 c % | % Control (14 days) ([4]; Table 7, Bialaphos 1.07 mg/mL, listed as bialaphos): 10% | % Control (7 days) ([4]; Table 8, Bialaphos 1.1 mg/mL): 5.0 ab % | % Control (14 days) ([4]; Table 8, Bialaphos 1.1 mg/mL): 3.7 a % | % Control (7 days) ([4]; Table 8, Bialaphos 1.4 mg/mL): 10.8 b % | % Control (14 days) ([4]; Table 8, Bialaphos 1.4 mg/mL): 23.3 b % | % Control (7 days) ([4]; Table 8, Bialaphos 1.8 mg/mL): 62.5 c % | % Control (14 days) ([4]; Table 8, Bialaphos 1.8 mg/mL): 66.7 c %

COc1cc(OC)nc(Oc2cccc(Oc3nc(OC)cc(OC)n3)c2C(=O)O)n1 [Bispyribac-sodium]
% Control Product ([5]; bispyribac-sodium 0.0216 mg/mL): 53.3% | % Control Product ([6]; bispyribac-sodium 0.032 mg/mL): 0.0% | Watergrass control (%) ([7]; Bispyribac-sodium 12 g/acre): 32.5a % | Watergrass control (%) ([7]; Bispyribac-sodium ½ (6 g/acre)): 15c % | Sedge control (%) ([8]; Bispyribac-sodium 12 g/acre): 87.5a % | Sedge control (%) ([8]; Bispyribac-sodium ½ (6 g/acre)): 47.5c % | % control AI [9, 19]: 37.5% | % control chemical AI [10, 19]: 6.7% | % Control Product ([11]; bispyribac-sodium 0.0216 mg/mL): 5.0%

N[C@@H](Cc1cccc(O)c1)C(=O)O [M-tyrosine, m-Tyrosine]
E (% controlled compared to UTC) ([12]; .22 mg/mL M-tyrosine): 8.3% | AVG No. germinated ([12]; .22 mg/mL M-tyrosine): 40.7 | E (% controlled compared to UTC) ([12]; .44 mg/mL M-tyrosine): 0.8% | AVG No. germinated ([12]; .44 mg/mL M-tyrosine): 44.0

CCCCC/C=C/C=C/C(=O)N1CCCC1 [Sarmentine]
Control of redstem (%) ([13]; Sarmentine 2.5 mg/mL): 0a % | Control of redstem (%) ([13]; Sarmentine 5.0 mg/mL): 2.5ab % | Control of sprangletop (%) ([14]; Sarmentine 2.5 mg/mL): 80.0c % | Control of sprangletop (%) ([14]; Sarmentine 5.0 mg/mL): 92.3d % | Control of sedge (%) ([15]; Sarmentine 2.5 mg/mL): 8.3a % | Control of sedge (%) ([15]; Sarmentine 5.0 mg/mL): 6.7a %

CC1(C)CON(Cc2ccccc2Cl)C1=O [clomazone]
% Control Product ([16]; clomazone 0.501 mg/mL): 0.0% | % Control Product ([5]; clomazone 0.513 mg/mL): 25.0% | % Control Product ([6]; clomazone 0.513 mg/mL): 37.5% | % control AI ([9]; Clomazone 13% v/v of label rate): 0.0% | % control chemical AI ([10]; Clomazone 13.3 % v/v of label rate): 37.50%

COc1c(Cl)ccc(Cl)c1C(=O)O [dicamba, reference compound]
% Control Product ([1]; dicamba 0.121 mg/mL): 45.8% | % Control Product ([2]; dicamba 6.025 mg/mL): 50.0%

CCOC(=O)[C@@H](C)Oc1ccc(Oc2nc3ccc(Cl)cc3o2)cc1 [fenoxaprop-p-ethyl]
% Control Product ([16]; fenoxaprop-p-ethyl 0.116 mg/mL): 0.0% | % Control Product ([5]; fenoxaprop-p-ethyl 0.006 mg/mL): 0.0% | % Control Product ([6]; fenoxaprop-p-ethyl 0.006 mg/mL): 91.7%

CP(=O)(O)CCC(N)C(=O)O (stereo not drawn) [glufosinate]
% Control Product ([11]; glufosinate 0.194 mg/mL): 22.5% | % Control Product ([17]; glufosinate 0.151 mg/mL): 83.3%

O=C(O)CNCP(=O)(O)O [glyphosate]
% Control Product ([11]; glyphosate 2.198 mg/mL): 15.0% | % Control Product ([17]; glyphosate 0.754 mg/mL): 45.8%

CS(=O)(=O)c1ccc(C(=O)C2C(=O)CCCC2=O)c([N+](=O)[O-])c1 [mesotrione]
% Control Product ([11]; mesotrione 0.96 mg/mL): 25.0% | % Control Product ([17]; mesotrione 0.24 mg/mL): 62.5%

COc1cnc(OC)n2nc(NS(=O)(=O)c3c(OCC(F)F)cccc3C(F)(F)F)nc12 [penoxsulam]
% Control Product ([16]; penoxsulam 0.047 mg/mL): 66.7% | % Control Product ([6]; penoxsulam 0.051 mg/mL): 25.0% | % control AI ([9]; Penoxsulam 13% v/v of label rate): 33.3% | % control chemical AI ([10]; Penoxsulam 13.0 % v/v of label rate): 25.0%

CCN(CC)C(=O)SCc1ccc(Cl)cc1 [thiobencarb]
% Control Product ([16]; thiobencarb 3.15 mg/mL): 58.3% | % Control Product ([5]; thiobencarb 1.743 mg/mL): 10.0% | % Control Product ([6]; thiobencarb 1.743 mg/mL): 41.7% | % control AI ([9]; Thiobencarb 25% v/v of label rate): 41.7% | Observed average % efficacy ([18]; first series, 25% Thiobencarb): 41.7% | Observed average % efficacy ([18]; second series, 15% Thiobencarb): 25%
